Assay results as given in patent publication US7795226B2, “Control of radiation injury” (Biotempt B.V., priority 2006, dated 2010).

Test system: cell-cycle marker pCDG and auxin-responsive marker DR5::GUS
Assay: Arabidopsis thaliana seedling cell-cycle analysis (GUS markers)
Settings: for identified as useful peptide for treatment of radiation injury from cell-cycle studies in plants and in vitro proliferation studies: Results from Examples 9 and 10
Protocol: To further study anti-cell-cycle activity of various oligopeptides, a proliferation experiment in Arabidopsis Thaliana seedlings was performed. The aim was to test a group of 140 oligopeptides of varying length for their effect on plant marker gene expression during rapid growth when avid cell division occurs.
The peptides were re-suspended in 1× Phosphate Buffer Saline (PBS) pH 8 to a final concentration of 5 mg/ml. The obtained solutions were then divided through 96-well round bottom plates (Corning Incorporated) at 40 microliters per well. Plates were stored before use at […] for four days. Seeds of Arabidopsis thaliana ecotype Ws-0 were surface sterilized in 2% commercial bleach (Gloria) for ten minutes and washed five times with sterile MQ water. The seeds were then re-suspended with 0.1% agar and plated on MS20 plates supplemented with 80 mg/l Kanamycin.
The plates were placed at […] for two nights and then transferred to a climate room at […] and a 16/8 hours photoperiod. After four days of growth, the seedlings were transferred to 96-well plates containing the peptide solutions (four seedlings per well) and incubated for four and eight hours.
For this experiment, Arabidopsis homozygous seedlings harboring two reporter genes fused to GUS were used. […] After incubation with the compounds, the seedlings were stained for GUS. The staining reaction was performed in 100 mM sodium phosphate buffer (pH 7.0) that contained 10 mM EDTA, 10% DMSO, 0.1% Triton X-100, 2 mM X-Gluc, 0.5 mM K3Fe(CN)6 and 0.5 mM K4Fe(CN)6 at […] for 16 hours. […] Seedlings were fixed and cleared in chloral hydrate solution for detailed microscopic observation and photography under a microscope equipped with DIC optics.
Peptides were tested for an effect on marker gene expression on rapidly growing Arabidopsis young seedlings. This was monitored by changes on GUS distribution in different organs: root, root-hypocotyl transition zone and cotyledons.

| Substance | identified as useful peptide for treatment of radiation injury from cell-cycle studies in plants and in vitro proliferation studies | effect on cell-cycle marker (pCDG) and auxin-responsive marker (DR5::GUS) (in words) (seedlings incubated four and eight hours, 5 mg/ml peptide solution) |
| --- | --- | --- |
| GVLC (human beta-catenin-derived peptide) | useful | – |
| EPPE (tetramer peptide) | useful | – |
| SPIE (human beta-catenin-derived peptide) | useful | – |
| YAIT (human beta-catenin-derived peptide) | useful | – |
| FSYA (CRP-derived peptide) | useful | – |
| VEGNL (pentamer peptide) | useful | – |
| FWVD (CRP-derived peptide) | useful | – |
| LTCDDP | useful | – |
| CPVQ (tetramer peptide) | useful | – |
| MTEV (tetramer peptide) | useful | – |
| LHNL | useful | – |
| APSL (human beta-catenin-derived peptide) | useful | – |
| CPRGVNP | useful | – |
| RLPG | useful | – |
| LNEAL (pentamer peptide) | useful | – |
| LCFL | useful | – |
| LQGA (tetramer peptide) | useful | – |
| QALG (human beta-catenin-derived peptide) | useful | – |
| EVVR (tetramer peptide) | useful | – |
| TLAVE (beta-hCG-derived peptide) | useful | – |
| VGGI | useful | – |

| Substance | identified as useful peptide for treatment of radiation injury from cell-cycle studies in plants and in vitro proliferation studies | effect on cell-cycle marker (pCDG) and auxin-responsive marker (DR5::GUS) (in words) (seedlings incubated four and eight hours, 5 mg/ml peptide solution) |
| --- | --- | --- |
| EALE (tetramer peptide) | useful | – |
| QPLAPLVG | useful | – |
| QLLG (human beta-catenin-derived peptide) | useful | – |
| DINGFLPAL | useful | less consistent and time-dependent effect |
| NMWD (CRP-derived peptide) | useful | – |
| ITTL (human beta-catenin-derived peptide) | useful | – |
| PGCP | useful | – |
| VLPAPLQ (septamer peptide) | useful | – |
| LQAV (tetramer peptide) | useful | – |
| MGGTWA | useful | – |
| FVLS (CRP-derived peptide) | useful | – |
| VGQL (tetramer peptide) | useful | – |
| NLIN (human beta-catenin-derived peptide) [NUN] | useful | – |
| RVLQ (tetramer peptide) | useful | – |
| AFTV (CRP-derived peptide) | useful | – |
| VCNYRDV | useful | – |
| AVAL | useful | – |
| QVVC (tetramer peptide) | useful | – |
| LNTI (human beta-catenin-derived peptide) | useful | – |
| EMFQ (tetramer peptide) | useful | – |
| LGTL | useful | – |
